From the supplement of paper PMC10307832

Assays:
Assay in all cases: relative viability (nuclei count vs DMSO), 5 days (fraction); higher = more cells survive
[1] = tested on: ChaGo-K-1
Method in brief: (§1)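 For relative viability, nuclei counts in treated wells were divided by those in vehicle wells. Lung cancer cell lines had been pin-tool dosed in 1536-well plates the day after seeding and cultured for 5 days, then fixed and stained in one step (final 0.05% Triton X-100, 1% formaldehyde, 1 ug/ml Hoechst) and imaged at 4×. Doses were one drug alone or a fixed anchor-drug dose plus five library-drug doses (not always all listed) in √10 steps, and values are duplicate-plate medians.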

[2] = tested on: EKVX
Method in brief: as §1

[3] = tested on: EMC-BAC-2
Method in brief: as §1

[4] = tested on: EPLC-272H
Method in brief: as §1

[5] = tested on: HCC-78
Method in brief: as §1

[6] = tested on: HCC-827
Method in brief: as §1

[7] = tested on: LCLC-103H
Method in brief: as §1

[8] = tested on: LK-2
Method in brief: as §1

[9] = tested on: LU99A
Method in brief: as §1

[10] = tested on: NCI-H1563
Method in brief: as §1

[11] = tested on: NCI-H1666
Method in brief: as §1

[12] = tested on: NCI-H1975
Method in brief: as §1

[13] = tested on: NCI-H2126
Method in brief: as §1

[14] = tested on: NCI-H23
Method in brief: as §1

[15] = tested on: NCI-H2405
Method in brief: as §1

[16] = tested on: NCI-H322M
Method in brief: as §1

[17] = tested on: PC-14
Method in brief: as §1

[18] = tested on: RERF-LC-KJ
Method in brief: as §1

[19] = tested on: SK-LU-1
Method in brief: as §1

[20] = tested on: SW 1573
Method in brief: as §1

Cc1sc2c(c1C)C(c1ccc(Cl)cc1)=N[C@@H](CC(=O)OC(C)(C)C)c1nnc(C)n1-2 [JQ1] + C[C@@H](Oc1cc(-c2cnn(C3CCNCC3)c2)cnc1N)c1c(Cl)ccc(F)c1Cl [Crizotinib] (partner 1 µM)
relative viability ([1]; first compound 0.04 µM): 1.04 | relative viability ([1]; first compound 0.4 µM): 0.689 | relative viability ([1]; first compound 1.265 µM): 0.513 | relative viability ([1]; first compound 4 µM): 0.387 | relative viability ([2]; first compound 0.04 µM): 0.713 | relative viability ([2]; first compound 0.1265 µM): 0.749 | relative viability ([2]; first compound 0.4 µM): 0.938 | relative viability ([2]; first compound 1.265 µM): 0.707 | relative viability ([2]; first compound 4 µM): 0.489 | relative viability ([3]; first compound 0.04 µM): 0.737 | relative viability ([3]; first compound 0.1265 µM): 0.651 | relative viability ([3]; first compound 0.4 µM): 0.504 | relative viability ([3]; first compound 1.265 µM): 0.43 | relative viability ([3]; first compound 4 µM): 0.315 | relative viability ([4]; first compound 0.04 µM): 0.904 | relative viability ([4]; first compound 0.1265 µM): 0.759 | relative viability ([4]; first compound 0.4 µM): 0.885 | relative viability ([4]; first compound 1.265 µM): 0.364 | relative viability ([4]; first compound 4 µM): 0.37 | relative viability ([5]; first compound 0.04 µM): 0.314 | relative viability ([5]; first compound 0.1265 µM): 0.33 | relative viability ([5]; first compound 0.4 µM): 0.348 | relative viability ([5]; first compound 1.265 µM): 0.275 | relative viability ([5]; first compound 4 µM): 0.251 | relative viability ([6]; first compound 0.04 µM): 1.01 | relative viability ([6]; first compound 0.4 µM): 0.663 | relative viability ([6]; first compound 1.265 µM): 0.672 | relative viability ([6]; first compound 4 µM): 0.668 | relative viability ([7]; first compound 0.04 µM): 1 | relative viability ([7]; first compound 0.1265 µM): 0.94 | relative viability ([7]; first compound 0.4 µM): 0.847 | relative viability ([7]; first compound 1.265 µM): 0.612 | relative viability ([7]; first compound 4 µM): 0.506 | relative viability ([8]; first compound 0.04 µM): 0.208 | relative viability ([8]; first compound 0.1265 µM): 0.224 | relative viability ([8]; first compound 0.4 µM): 0.212 | relative viability ([8]; first compound 1.265 µM): 0.232 | relative viability ([8]; first compound 4 µM): 0.198 | relative viability ([9]; first compound 0.04 µM): 0.554 | relative viability ([9]; first compound 0.1265 µM): 0.533 | relative viability ([9]; first compound 0.4 µM): 0.278 | relative viability ([9]; first compound 1.265 µM): 0.231 | relative viability ([9]; first compound 4 µM): 0.198 | relative viability ([10]; first compound 0.04 µM): 0.839 | relative viability ([10]; first compound 0.1265 µM): 0.764 | relative viability ([10]; first compound 0.4 µM): 0.881 | relative viability ([10]; first compound 1.265 µM): 0.631 | relative viability ([10]; first compound 4 µM): 0.615 | relative viability ([11]; first compound 0.04 µM): 0.771 | relative viability ([11]; first compound 0.1265 µM): 0.841 | relative viability ([11]; first compound 0.4 µM): 0.669 | relative viability ([11]; first compound 1.265 µM): 0.451 | relative viability ([11]; first compound 4 µM): 0.481 | relative viability ([12]; first compound 0.04 µM): 0.891 | relative viability ([12]; first compound 0.1265 µM): 0.675 | relative viability ([12]; first compound 0.4 µM): 0.483 | relative viability ([12]; first compound 1.265 µM): 0.3 | relative viability ([12]; first compound 4 µM): 0.235 | relative viability ([13]; first compound 0.04 µM): 1.04 | relative viability ([13]; first compound 0.1265 µM): 0.987 | relative viability ([13]; first compound 0.4 µM): 0.901 | relative viability ([13]; first compound 1.265 µM): 0.966 | relative viability ([13]; first compound 4 µM): 0.754 | relative viability ([14]; first compound 0.04 µM): 0.441 | relative viability ([14]; first compound 0.1265 µM): 0.61 | relative viability ([14]; first compound 0.4 µM): 0.304 | relative viability ([14]; first compound 1.265 µM): 0.163 | relative viability ([14]; first compound 4 µM): 0.154 | relative viability ([15]; first compound 0.04 µM): 0.829 | relative viability ([15]; first compound 0.1265 µM): 0.711 | relative viability ([15]; first compound 0.4 µM): 0.749 | relative viability ([15]; first compound 1.265 µM): 0.555 | relative viability ([15]; first compound 4 µM): 0.395 | relative viability ([16]; first compound 0.04 µM): 0.83 | relative viability ([16]; first compound 0.1265 µM): 0.839 | relative viability ([16]; first compound 0.4 µM): 0.856 | relative viability ([16]; first compound 1.265 µM): 0.533 | relative viability ([16]; first compound 4 µM): 0.458 | relative viability ([17]; first compound 0.04 µM): 0.907 | relative viability ([17]; first compound 0.1265 µM): 0.781 | relative viability ([17]; first compound 0.4 µM): 0.776 | relative viability ([17]; first compound 1.265 µM): 0.611 | relative viability ([17]; first compound 4 µM): 0.426 | relative viability ([18]; first compound 0.04 µM): 0.783 | relative viability ([18]; first compound 0.1265 µM): 0.879 | relative viability ([18]; first compound 0.4 µM): 0.777 | relative viability ([18]; first compound 1.265 µM): 0.635 | relative viability ([18]; first compound 4 µM): 0.29 | relative viability ([19]; first compound 0.04 µM): 0.96 | relative viability ([19]; first compound 0.1265 µM): 0.615 | relative viability ([19]; first compound 0.4 µM): 0.481 | relative viability ([19]; first compound 1.265 µM): 0.193 | relative viability ([19]; first compound 4 µM): 0.148 | relative viability ([20]; first compound 0.04 µM): 0.633 | relative viability ([20]; first compound 0.1265 µM): 0.741 | relative viability ([20]; first compound 0.4 µM): 0.678 | relative viability ([20]; first compound 1.265 µM): 0.48 | relative viability ([20]; first compound 4 µM): 0.385
